Laboratory results taken from article PMC3930709, “Selective Activation of hTRPV1 by N-Geranyl Cyclopropylcarboxamide, an Amiloride-Insensitive Salt Taste Enhancer” (PLoS ONE, 2014).

Legend:
hTRPV1 = target: T1, hTRPV1 (Homo sapiens, UniProt Q8NER1); assay: Whole-cell patch clamp recording, hTRPV1-expressing HEK293T cells; format: cell-based; settings: capsaicin 100 nM; NGCC 10^3 µM; holding -80 mV
T1 construct: expressed in transfected cells; host or cells: HEK293T
Method: Mouse ASIC1a (mASIC1a) was a kind gift from John A. Wemmie (University of Iowa, IA, USA). For electrophysiological experiments, HEK293T cells were cultured in DMEM supplemented with 10% FBS and 0.2% penicillin/streptomycin and transiently transfected using Lipofectamine 2000 (Invitrogen) with various cDNAs. For TRPV1 channel expression, cells were transfected with hTRPV1, for ASIC1a homomeric channel expression, cells were transfected with mASIC1a. When needed, 0.1–0.2 µg of cDNA encoding tetrameric red fluorescence protein (DsRed) was co-transfected with the cDNA as a marker for successfully transfected cells. For non-transfected cells, cells were transfected with 0.1–0.2 µg of cDNA encoding DsRed alone. The next day, cells were plated onto poly-L-lysine-coated coverslip chips, and fluorescent cells were studied within 1–2 days.
The whole-cell configuration was used to voltage-clamp at room temperature (22–25°C). Electrodes pulled from glass micropipette capillaries (Sutter Instrument) had resistances of 2–2.5 MΩ, and series resistance errors were compensated >60%. Fast and slow capacitances were compensated before the application of test-pulse. Recordings were performed using aHEKAEPC-10 amplifier with pulse software (HEKA Elektronik). The pipette solution contained: 140 mM KCl, 5 mM MgCl2, 10 mM HEPES, 0.1 mM 1,2-bis(2-aminophenoxy) ethane N,N,N’,N’-tetraacetic acid(BAPTA), 3 mM Na2ATP, and 0.1 mM Na3GTP, adjusted to pH 7.4 with KOH. The external Ringer’s solution used for recording TRPV1 and TRPA1 currents contained: 150 mM NaCl, 5 mM KCl, 1 mM MgCl2, 2 mM EGTA, 10 mM Glucose, and 10 mM HEPES, adjusted to pH 7.4 with NaOH. TRPV1 and TRPA1 currents were recorded by holding the cell at −80 mV. The external Ringer’s solution used for recording ASIC current contained: 160 mM NaCl, 5 mM KCl, 1 mM MgCl2, 2 mM CaCl2, and 10 mM HEPES, adjusted to pH 7.4 with tetramethylammonium hydroxide. For acidic solution of pH 6.0, HEPES was replaced with MES. ASIC currents were recorded by holding the cell at −70 mV. Reagents were obtained as follows: BAPTA, Na2ATP, Na3GTP, EGTA, and tetramethylammonium hydroxide (Sigma), HEPES (Calbiochem), MES (Alfa Aesar), and other chemicals (Merck).

hTRPA1 = target: T2, hTRPA1 (Homo sapiens, UniProt O75762); assay: Measurement of Ca2+ influx (Fluo-4 AM, FlexStation III) in hTRPA1-expressing cells; format: cell-based; settings: hTRPA1-expressing Flp-In 293 cells, Hill fit
T2 construct: expressed in transfected cells
T2 sequence (O75762 whole entry): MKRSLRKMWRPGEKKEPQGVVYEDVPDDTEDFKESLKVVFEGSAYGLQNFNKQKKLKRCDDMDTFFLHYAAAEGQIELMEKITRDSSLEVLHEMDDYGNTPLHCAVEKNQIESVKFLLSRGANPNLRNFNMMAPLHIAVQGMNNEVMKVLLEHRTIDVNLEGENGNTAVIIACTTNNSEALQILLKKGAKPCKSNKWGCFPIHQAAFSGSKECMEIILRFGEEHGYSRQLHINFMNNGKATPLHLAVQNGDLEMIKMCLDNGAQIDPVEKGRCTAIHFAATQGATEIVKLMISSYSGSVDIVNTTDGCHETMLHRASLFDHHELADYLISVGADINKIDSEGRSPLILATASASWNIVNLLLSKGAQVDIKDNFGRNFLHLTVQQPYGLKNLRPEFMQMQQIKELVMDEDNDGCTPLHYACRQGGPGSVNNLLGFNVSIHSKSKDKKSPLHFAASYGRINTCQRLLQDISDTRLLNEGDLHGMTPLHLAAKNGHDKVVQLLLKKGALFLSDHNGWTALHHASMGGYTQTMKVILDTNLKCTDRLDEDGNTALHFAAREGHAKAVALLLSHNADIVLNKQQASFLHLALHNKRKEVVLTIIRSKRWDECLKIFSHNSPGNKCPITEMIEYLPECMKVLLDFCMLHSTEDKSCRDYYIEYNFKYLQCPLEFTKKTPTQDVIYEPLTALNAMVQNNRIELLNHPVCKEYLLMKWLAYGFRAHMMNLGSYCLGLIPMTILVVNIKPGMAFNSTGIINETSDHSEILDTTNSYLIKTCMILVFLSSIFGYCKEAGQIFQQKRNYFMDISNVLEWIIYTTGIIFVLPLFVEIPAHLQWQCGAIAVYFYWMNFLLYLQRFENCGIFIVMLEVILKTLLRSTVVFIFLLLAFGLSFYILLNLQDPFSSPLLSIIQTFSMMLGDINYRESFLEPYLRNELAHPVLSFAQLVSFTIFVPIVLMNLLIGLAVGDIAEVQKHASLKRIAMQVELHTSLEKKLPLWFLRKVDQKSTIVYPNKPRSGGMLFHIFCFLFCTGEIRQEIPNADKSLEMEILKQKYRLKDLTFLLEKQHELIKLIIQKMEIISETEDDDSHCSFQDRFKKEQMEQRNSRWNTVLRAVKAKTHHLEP
Method: Flp-In 293 cell lines stably expressing hTRPA1constructed as previously reported was a gift from the professor Takumi Misaka at University of Tokyo. The hTRPA1-expressing cells were cultured in DMEM containing 10% FBS and 0.02% hygromycin B (Invitrogen). Flp-In 293 cell lines were maintained in DMEM containing 10% FBS. All cells were incubated at 37°C in a humidified atmosphere of 5% CO2.
The ligand-induced changes on cytosolic Ca^2+ level were monitored by a FlexStation III microplate reader (Molecular Devices). Fluo-4 AM (5 µM, Molecular Probes, Eugene, OR, USA) in assay buffer was loaded to the cells in 96-well black-wall plates for 30 min at 27°C. After dye treatment, each chemical was added to each well at 17 s and changes on intracellular Ca^2+ level were monitored by relative fluorescence units (ΔRFU, Ex = 485 nm; Em = 516 nm) for 120 s. […] The responses from at least three wells receiving the same stimulus were averaged. Plots of amplitude versus concentration were fitted using the Hill equation.

[1] = tested on: mock-transfected HEK293T cells; assay: Ca2+ imaging of mock-transfected HEK293T cells (control); format: cell-based, human; settings: single concentration
Method: Mock-transfected HEK293T cells, hTRPV1-expressing HEK293T cells, non-hTRPA1-expressing Flp-In 293 cells, and hTRPA1-expressing Flp-In 293 cells grown in 96-well black-wall plates were rinsed with assay buffer (130 mM NaCl, 10 mM glucose, 5 mM KCl, 2 […]2, 1.2 mM MgCl2, and 10 mM HEPES, pH 7.4) and loaded with 5 μM Fura-2 AM (Invitrogen) for 30 min at 27°C. The cells were washed with assay buffer and treated with ligands. […] The fluorescence intensities of Fura-2 excited at 340 and 380 nm were simultaneously measured at 510 nm using a computer-controlled filter changer (Lambda DG4; Sutter, San Rafael, CA, USA), an Andor Luca CCD camera (Andor Technology, Belfast, UK), and an inverted fluorescence microscope (IX-71; Olympus, Tokyo, Japan). Intracellular calcium images were recorded every 3-s for 60-s and analyzed using MetaFluor software (Molecular Devices, Sunnyvale, CA, USA).

T1 sequence (Q8NER1 whole entry): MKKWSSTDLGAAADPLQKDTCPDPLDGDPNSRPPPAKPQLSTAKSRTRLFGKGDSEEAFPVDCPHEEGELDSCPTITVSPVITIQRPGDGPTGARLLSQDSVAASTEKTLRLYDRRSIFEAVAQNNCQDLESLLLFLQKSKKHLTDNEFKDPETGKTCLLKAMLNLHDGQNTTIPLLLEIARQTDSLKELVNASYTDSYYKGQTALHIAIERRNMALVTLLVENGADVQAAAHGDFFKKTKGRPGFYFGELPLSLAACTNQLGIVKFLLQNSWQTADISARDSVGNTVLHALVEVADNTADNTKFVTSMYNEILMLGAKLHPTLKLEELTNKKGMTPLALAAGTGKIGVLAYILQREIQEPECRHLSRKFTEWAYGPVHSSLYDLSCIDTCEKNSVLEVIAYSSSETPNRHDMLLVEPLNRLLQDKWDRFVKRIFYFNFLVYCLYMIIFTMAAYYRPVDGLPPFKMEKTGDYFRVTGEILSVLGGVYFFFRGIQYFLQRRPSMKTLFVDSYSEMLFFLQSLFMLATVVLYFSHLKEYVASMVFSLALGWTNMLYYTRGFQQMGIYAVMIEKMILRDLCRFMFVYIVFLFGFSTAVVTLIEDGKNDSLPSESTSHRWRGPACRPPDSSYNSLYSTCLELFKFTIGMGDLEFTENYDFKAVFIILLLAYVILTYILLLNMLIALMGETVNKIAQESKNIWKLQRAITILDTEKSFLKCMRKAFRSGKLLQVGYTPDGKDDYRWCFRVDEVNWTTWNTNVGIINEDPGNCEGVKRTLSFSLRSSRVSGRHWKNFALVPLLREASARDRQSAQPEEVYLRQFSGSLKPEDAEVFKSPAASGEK

- inward current in cells expressing hTRPV1 (hTRPV1): triggered an inward current
- EC50 (hTRPA1): 83.7 µM
SMILES: CC(C)=CCC/C(C)=C/CNC(=O)C1CC1 [NGCC, N-geranylcyclopropylcarboxamide]
- change in fluorescence in mock-transfected cells [1]: no changes in fluorescence
